From PubChem BioAssay AID2060904 (Molecular Pharmacology Branch, DTP, NCI, 2025)

Test system: 349418-098-R-PDC complex spheroid viability
Test: Anticancer human tumor 349418-098-R-PDC patient-derived lung adenocarcinoma cell line growth inhibition [RAS]
Conditions: for IC50: curve of first compound; for viability, T/C: stronger effect = lower value; active = viability on the fitted dose curve at most 10% of control; inactive = the rest
In short: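 Multi-cell-type spheroids: tumor cells plus HUVEC endothelial cells and mesenchymal stem cells. RAS-pathway inhibitors were combined with targeted agents, each dosed in half-log steps down from clinical Cmax, or from 10 microM when Cmax was unknown.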

[1] = second compound 0.000949 µM, first compound 0.0316 µM
[2] = second compound 0.000949 µM, first compound 0.1 µM
[3] = second compound 0.000949 µM, first compound 0.316 µM
[4] = second compound 0.000949 µM, first compound 1 µM
[5] = second compound 0.000949 µM, first compound 3.16 µM
[6] = second compound 0.000949 µM, first compound 10 µM
[7] = second compound 0.003 µM, first compound 0.0316 µM
[8] = second compound 0.003 µM, first compound 0.1 µM
[9] = second compound 0.003 µM, first compound 0.316 µM
[10] = second compound 0.003 µM, first compound 1 µM
[11] = second compound 0.003 µM, first compound 3.16 µM
[12] = second compound 0.003 µM, first compound 10 µM
[13] = second compound 0.00949 µM, first compound 0.0316 µM
[14] = second compound 0.00949 µM, first compound 0.1 µM
[15] = second compound 0.00949 µM, first compound 0.316 µM
[16] = second compound 0.00949 µM, first compound 1 µM
[17] = second compound 0.00949 µM, first compound 3.16 µM
[18] = second compound 0.00949 µM, first compound 10 µM
[19] = second compound 0.03 µM, first compound 0.0316 µM
[20] = second compound 0.03 µM, first compound 0.1 µM
[21] = second compound 0.03 µM, first compound 0.316 µM
[22] = second compound 0.03 µM, first compound 1 µM
[23] = second compound 0.03 µM, first compound 3.16 µM
[24] = second compound 0.03 µM, first compound 10 µM
[25] = second compound 0.0949 µM, first compound 0.0316 µM
[26] = second compound 0.0949 µM, first compound 0.1 µM
[27] = second compound 0.0949 µM, first compound 0.316 µM
[28] = second compound 0.0949 µM, first compound 1 µM
[29] = second compound 0.0949 µM, first compound 3.16 µM
[30] = second compound 0.0949 µM, first compound 10 µM
[31] = second compound 0.3 µM, first compound 0.0316 µM
[32] = second compound 0.3 µM, first compound 0.1 µM
[33] = second compound 0.3 µM, first compound 0.316 µM
[34] = second compound 0.3 µM, first compound 1 µM
[35] = second compound 0.3 µM, first compound 3.16 µM
[36] = second compound 0.3 µM, first compound 10 µM
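Also: spheroids exposed to compound for seven days before viability readout.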

C[C@@H](NC(=O)c1ncnc(N)c1Cl)c1ncc(C(=O)Nc2cc(C(F)(F)F)c(Cl)cn2)s1 + CCn1c(-c2cc(N3CCN(C)CC3)cnc2C(C)OC)c2c3cc(ccc31)-c1csc(n1)CC(NC(=O)C1CC1C)C(=O)N1CCCC(N1)C(=O)OCC(C)(C)C2
1120 nM: IC50 (second compound 0.003 µM)
inactive: viability, T/C [1] 105% | viability, T/C [2] 85.8% | viability, T/C [3] 77.9% | viability, T/C [4] 58.2% | viability, T/C [5] 30.6% | viability, T/C [6] 17.3% | viability, T/C [7] 102% | viability, T/C [8] 93.6% | viability, T/C [9] 72.5% | viability, T/C [10] 54.5% | viability, T/C [11] 29.7% | viability, T/C [12] 18.7% | viability, T/C [13] 106% | viability, T/C [14] 90.4% | viability, T/C [15] 81.1% | viability, T/C [16] 49% | viability, T/C [17] 23.2% | viability, T/C [18] 12.5% | viability, T/C [19] 103% | viability, T/C [20] 88% | viability, T/C [21] 87.4% | viability, T/C [22] 40% | viability, T/C [23] 23.1% | viability, T/C [24] 11.4% | viability, T/C [25] 102% | viability, T/C [26] 89.6% | viability, T/C [27] 79.3% | viability, T/C [28] 35% | viability, T/C [29] 20.2% | viability, T/C [30] 11.8% | viability, T/C [31] 104% | viability, T/C [32] 93.2% | viability, T/C [33] 69.9% | viability, T/C [34] 51.8% | viability, T/C [35] 23.2% | viability, T/C [36] 12.5%
976 nM: IC50 (second compound 0.00949 µM)
1340 nM: IC50 (second compound 0.000949 µM)
806 nM: IC50 (second compound 0.03 µM)
915 nM: IC50 (second compound 0.3 µM)
687 nM: IC50 (second compound 0.0949 µM)

CCC(CC)c1cc(NC2CCC(N)C2)n2nccc2n1 (stereo unspecified) + CCn1c(-c2cc(N3CCN(C)CC3)cnc2C(C)OC)c2c3cc(ccc31)-c1csc(n1)CC(NC(=O)C1CC1C)C(=O)N1CCCC(N1)C(=O)OCC(C)(C)C2
inactive: viability, T/C [1] 96.1% | viability, T/C [2] 91.7% | viability, T/C [3] 98.7% | viability, T/C [4] 40.8% | viability, T/C [7] 103% | viability, T/C [8] 106% | viability, T/C [9] 96.5% | viability, T/C [10] 52.7% | viability, T/C [13] 94.8% | viability, T/C [14] 94.3% | viability, T/C [15] 90% | viability, T/C [16] 56.3% | viability, T/C [19] 107% | viability, T/C [20] 103% | viability, T/C [21] 94.1% | viability, T/C [22] 42.8% | viability, T/C [25] 119% | viability, T/C [26] 103% | viability, T/C [27] 99.8% | viability, T/C [28] 50.7% | viability, T/C [31] 116% | viability, T/C [32] 107% | viability, T/C [33] 108% | viability, T/C [34] 49.4%
842 nM: IC50 (second compound 0.03 µM)
986 nM: IC50 (second compound 0.3 µM)
825 nM: IC50 (second compound 0.000949 µM)
1140 nM: IC50 (second compound 0.00949 µM)
985 nM: IC50 (second compound 0.0949 µM)
active: viability, T/C [5] 2.44% | viability, T/C [6] 2.65% | viability, T/C [11] 2.69% | viability, T/C [12] 2.78% | viability, T/C [17] 2.15% | viability, T/C [18] 2.27% | viability, T/C [23] 2.26% | viability, T/C [24] 2.15% | viability, T/C [29] 2.85% | viability, T/C [30] 2.9% | viability, T/C [35] 2.38% | viability, T/C [36] 2.44%
1050 nM: IC50 (second compound 0.003 µM)

CCC(CC)c1cc(NC2CCC(N)C2)n2nccc2n1 (stereo unspecified) + C=CC(=O)N1CCN(c2nc(OCC3CCCN3C)nc3c(F)c(-c4nc(N)cc(C)c4C(F)(F)F)c(Cl)cc23)C(C)C1
588 nM: IC50 (second compound 0.316 µM)
720 nM: IC50 (second compound 0.00316 µM)
active: viability, T/C (second compound 0.00316 µM, first compound 3.16 µM) 3.31% | viability, T/C (second compound 0.00316 µM, first compound 10 µM) 2.99% | viability, T/C (second compound 0.01 µM, first compound 3.16 µM) 3.18% | viability, T/C (second compound 0.01 µM, first compound 10 µM) 2.92% | viability, T/C (second compound 0.0316 µM, first compound 3.16 µM) 2.8% | viability, T/C (second compound 0.0316 µM, first compound 10 µM) 2.99% | viability, T/C (second compound 0.1 µM, first compound 3.16 µM) 3.01% | viability, T/C (second compound 0.1 µM, first compound 10 µM) 3.2% | viability, T/C (second compound 0.316 µM, first compound 3.16 µM) 3.42% | viability, T/C (second compound 0.316 µM, first compound 10 µM) 2.54% | viability, T/C (second compound 1 µM, first compound 3.16 µM) 3.58% | viability, T/C (second compound 1 µM, first compound 10 µM) 4.86%
884 nM: IC50 (second compound 0.1 µM)
inactive: viability, T/C (second compound 0.00316 µM, first compound 0.0316 µM) 114% | viability, T/C (second compound 0.00316 µM, first compound 0.1 µM) 108% | viability, T/C (second compound 0.00316 µM, first compound 0.316 µM) 76.1% | viability, T/C (second compound 0.00316 µM, first compound 1 µM) 43.2% | viability, T/C (second compound 0.01 µM, first compound 0.0316 µM) 110% | viability, T/C (second compound 0.01 µM, first compound 0.1 µM) 86.8% | viability, T/C (second compound 0.01 µM, first compound 0.316 µM) 84.8% | viability, T/C (second compound 0.01 µM, first compound 1 µM) 53.8% | viability, T/C (second compound 0.0316 µM, first compound 0.0316 µM) 85.3% | viability, T/C (second compound 0.0316 µM, first compound 0.1 µM) 114% | viability, T/C (second compound 0.0316 µM, first compound 0.316 µM) 88% | viability, T/C (second compound 0.0316 µM, first compound 1 µM) 40.8% | viability, T/C (second compound 0.1 µM, first compound 0.0316 µM) 73% | viability, T/C (second compound 0.1 µM, first compound 0.1 µM) 80.5% | viability, T/C (second compound 0.1 µM, first compound 0.316 µM) 102% | viability, T/C (second compound 0.1 µM, first compound 1 µM) 45.8% | viability, T/C (second compound 0.316 µM, first compound 0.0316 µM) 111% | viability, T/C (second compound 0.316 µM, first compound 0.1 µM) 88.1% | viability, T/C (second compound 0.316 µM, first compound 0.316 µM) 75.7% | viability, T/C (second compound 0.316 µM, first compound 1 µM) 31.7% | viability, T/C (second compound 1 µM, first compound 0.0316 µM) 78.8% | viability, T/C (second compound 1 µM, first compound 0.1 µM) 71.9% | viability, T/C (second compound 1 µM, first compound 0.316 µM) 85.4% | viability, T/C (second compound 1 µM, first compound 1 µM) 54.3%
1100 nM: IC50 (second compound 1 µM)
996 nM: IC50 (second compound 0.01 µM)
797 nM: IC50 (second compound 0.0316 µM)
